Each compound was assayed against EGFR (UniProt P00533).
EGFR, sequence (P00533 whole entry, looked up): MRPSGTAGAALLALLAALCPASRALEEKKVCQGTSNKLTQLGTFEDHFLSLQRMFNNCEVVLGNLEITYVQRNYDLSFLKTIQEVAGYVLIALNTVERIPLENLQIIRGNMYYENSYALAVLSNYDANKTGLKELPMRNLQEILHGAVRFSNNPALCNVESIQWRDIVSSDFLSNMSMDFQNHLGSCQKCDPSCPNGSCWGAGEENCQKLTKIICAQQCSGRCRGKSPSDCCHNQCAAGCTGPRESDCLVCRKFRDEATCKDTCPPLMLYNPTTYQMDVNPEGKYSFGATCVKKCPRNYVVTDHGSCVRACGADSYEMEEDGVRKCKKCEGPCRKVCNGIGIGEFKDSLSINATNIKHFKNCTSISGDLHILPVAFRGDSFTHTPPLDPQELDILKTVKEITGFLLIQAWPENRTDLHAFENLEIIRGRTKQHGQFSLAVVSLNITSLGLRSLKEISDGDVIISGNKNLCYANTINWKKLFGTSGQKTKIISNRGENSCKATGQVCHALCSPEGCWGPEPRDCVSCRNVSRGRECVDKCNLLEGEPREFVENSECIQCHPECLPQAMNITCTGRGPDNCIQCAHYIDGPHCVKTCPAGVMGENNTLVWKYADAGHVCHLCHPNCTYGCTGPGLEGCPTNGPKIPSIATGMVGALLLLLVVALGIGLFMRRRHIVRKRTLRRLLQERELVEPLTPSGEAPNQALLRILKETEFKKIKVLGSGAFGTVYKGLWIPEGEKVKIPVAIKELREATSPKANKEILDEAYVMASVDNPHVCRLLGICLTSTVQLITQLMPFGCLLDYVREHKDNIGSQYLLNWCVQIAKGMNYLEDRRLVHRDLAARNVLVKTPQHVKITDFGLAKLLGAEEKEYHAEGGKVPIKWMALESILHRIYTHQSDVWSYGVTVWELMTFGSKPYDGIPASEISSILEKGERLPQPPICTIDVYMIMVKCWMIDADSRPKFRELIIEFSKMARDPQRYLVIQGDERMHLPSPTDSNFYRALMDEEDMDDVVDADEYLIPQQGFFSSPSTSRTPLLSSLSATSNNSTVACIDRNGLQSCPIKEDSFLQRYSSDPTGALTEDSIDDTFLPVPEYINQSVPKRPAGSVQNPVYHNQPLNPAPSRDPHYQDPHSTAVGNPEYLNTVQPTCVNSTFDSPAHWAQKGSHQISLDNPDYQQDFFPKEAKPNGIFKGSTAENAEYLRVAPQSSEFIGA

IC50, 50 to 1000 nM:
CCCN1CCCOC(COc2cc3ncnc(Nc4ccc(Cl)c(Cl)c4)c3cc2OC)C1 (stereo not given)

IC50, < 50 nM:
CCN1CCCOC(COc2cc3ncnc(Nc4ccc(Cl)c(Cl)c4)c3cc2OC)C1 (stereo not given), COc1cc2c(Nc3ccc(Br)c(Cl)c3)ncnc2cc1O[C@H]1CO[C@@H]2[C@H]1OC[C@@H]2N1CCN(C)CC1, COc1cc2c(Nc3ccc(Cl)c(Cl)c3)ncnc2cc1OCC1CN(CC(N)=O)CCO1 (stereo not given), COc1cc2c(Nc3ccc(Cl)c(Cl)c3)ncnc2cc1OCc1nc2c(s1)CN(C)CC2, COc1cc2c(Nc3cc(Cl)c(Cl)cc3F)ncnc2cc1OC[C@@H]1CO[C@H]2[C@@H]1OC[C@@H]2O, CCCC(C)C(=O)N1CCOC(COc2cc3ncnc(Nc4ccc(Cl)c(Cl)c4)c3cc2OC)C1 (stereo not given), COc1cc2c(Nc3ccc(Cl)c(Cl)c3)ncnc2cc1OCC1CN(CCC2CCCCC2)CCO1 (stereo not given), COc1cc2c(Nc3ccc(Cl)c(C)c3)ncnc2cc1OCC1CN(C)CCO1 (stereo not given), COc1cc2c(Nc3ccc(F)c(Cl)c3)ncnc2cc1O[C@@H]1CO[C@@H]2[C@H]1OC[C@H]2F, COc1cc2c(Nc3ccc(Br)c(Cl)c3)ncnc2cc1O[C@H]1CO[C@@H]2[C@H]1OC[C@@H]2SC, COc1cc2c(Nc3ccc(Cl)c(Cl)c3)ncnc2cc1OCC1CN(C/C=C/Br)CCO1 (stereo not given), COc1cc2c(Nc3ccc(Cl)c(Cl)c3)ncnc2cc1OCc1noc(C2CCCCN2C(=O)OC(C)(C)C)n1 (stereo not given), COc1cc2c(Nc3ccc(Cl)c(Cl)c3)ncnc2cc1OCc1nc(N(C)C)no1, COc1cc2c(Nc3ccc(Cl)c(Cl)c3)ncnc2cc1OCCC1CN(C)C(C)(C)CO1 (stereo not given), COc1cc2c(Nc3ccc(Cl)c(Cl)c3)ncnc2cc1OCc1nccn1Cc1ccccc1, COc1cc2c(Nc3ccc(Cl)c(Cl)c3)ncnc2cc1OCc1nnc(-c2ccc(C)cc2)o1, CC[C@@H](C)CN1CCOC(COc2cc3ncnc(Nc4ccc(Cl)c(Cl)c4)c3cc2OC)C1 (stereo not given in full), COc1cc2c(Nc3cccc(Br)c3C)ncnc2cc1O[C@H]1CO[C@H]2[C@@H]1OC[C@@H]2OC, COc1cc2c(Nc3ccc(Cl)c(Cl)c3)ncnc2cc1OCCC1CN(C)CC(C)(C)O1 (stereo not given), CCC(C(=O)N1CCOC(COc2cc3ncnc(Nc4ccc(Cl)c(Cl)c4)c3cc2OC)C1)c1ccccc1 (stereo not given), COc1cc2c(Nc3cccc(Cl)c3F)ncnc2cc1O[C@H]1CO[C@H]2[C@@H]1OC[C@@H]2OC, COc1cc2c(Nc3ccc(Cl)c(Cl)c3)ncnc2cc1OCC1CN(CCC2OCCCO2)CCO1 (stereo not given), COc1cc2c(Nc3cc(F)c(F)cc3F)ncnc2cc1O[C@@H]1CO[C@@H]2[C@H]1OC[C@H]2F, CCN(CC)c1ccc(-c2csc(COc3cc4ncnc(Nc5ccc(Cl)c(Cl)c5)c4cc3OC)n2)cc1, COc1cc2c(Nc3ccc(Cl)c(Cl)c3)ncnc2cc1OCC1CN(C(=O)CCC(C)C)CCO1 (stereo not given), COc1cc2c(Nc3ccc(Br)c(Cl)c3)ncnc2cc1O[C@@H]1CO[C@@H]2[C@H]1OC[C@@H]2OS(C)(=O)=O, COc1cc2c(Nc3ccc(Cl)c(Cl)c3C)ncnc2cc1OCC1CN(C)CCO1 (stereo not given), COc1cc2c(Nc3ccc(Br)c(Cl)c3)ncnc2cc1O[C@H]1COC[C@H]1OC, COc1cc2c(Nc3cc(F)cc(F)c3)ncnc2cc1O[C@@H]1CO[C@@H]2[C@H]1OC[C@H]2F, COc1cc2c(Nc3ccc(Cl)c(Cl)c3)ncnc2cc1OCc1nc(CN2CCN(C)CC2)cs1, COc1cc2c(Nc3ccc(Cl)c(Cl)c3)ncnc2cc1OCC1CN(Cc2ccccn2)CCO1 (stereo not given), COc1cc2c(Nc3ccc(Cl)c(Cl)c3)ncnc2cc1OCC1CN(C(=O)CC(=O)O)CCO1 (stereo not given), COc1cc2c(Nc3ccc(F)cc3C(F)(F)F)ncnc2cc1O[C@@H]1CO[C@@H]2[C@H]1OC[C@H]2F, COc1cc2c(Nc3ccc(Cl)c(Cl)c3)ncnc2cc1OCC1CN(CCF)CCO1 (stereo not given), COc1cc2c(Nc3ccc(Cl)c(Cl)c3F)ncnc2cc1O[C@@H]1CO[C@@H]2[C@H]1OC[C@H]2F, CCN1CCCC1c1nc(COc2cc3ncnc(Nc4ccc(Cl)c(Cl)c4)c3cc2OC)no1 (stereo not given), COc1cc2c(Nc3ccc(Cl)c(Cl)c3)ncnc2cc1OCC1CN(C(C)C(C)=O)CCO1 (stereo not given), COc1cc2c(Nc3cccc(Cl)c3C)ncnc2cc1OCC1CN(C)CCO1 (stereo not given), COc1cc2c(Nc3cc(Cl)ccc3F)ncnc2cc1O[C@@H]1CO[C@@H]2[C@H]1OC[C@H]2F, COc1cc2c(Nc3ccc(Cl)c(Cl)c3)ncnc2cc1OCC1CN(CC2CC2)CCCO1 (stereo not given), COc1cc2c(Nc3ccc(Br)c(Cl)c3)ncnc2cc1O[C@H]1CO[C@@H]2[C@H]1OC[C@@H]2OC(C)=O, COc1cc2c(Nc3ccc(Cl)c(Cl)c3)ncnc2cc1O[C@@H]1CO[C@@H]2[C@H]1OC[C@H]2F, COc1cc2c(Nc3cc(C(F)(F)F)ccc3Cl)ncnc2cc1O[C@@H]1CO[C@@H]2[C@H]1OC[C@H]2F, COc1cc2c(Nc3ccc(Cl)c(Cl)c3)ncnc2cc1OCC1CN(C2CCOCC2)CCO1 (stereo not given), COc1cc2c(Nc3ccc(Cl)c(Cl)c3)ncnc2cc1OCC1CN(C(C)=N)CCCO1 (stereo not given), COc1cc2c(Nc3cc(Cl)ccc3F)ncnc2cc1OCC1CN(C)CCO1 (stereo not given), CCN1CCC(c2nc(COc3cc4ncnc(Nc5ccc(Cl)c(Cl)c5)c4cc3OC)cs2)CC1, CCC(CC)CN1CCOC(COc2cc3ncnc(Nc4ccc(Cl)c(Cl)c4)c3cc2OC)C1 (stereo not given), CC#CCN1CCOC(COc2cc3ncnc(Nc4ccc(Cl)c(Cl)c4)c3cc2OC)C1 (stereo not given), COc1cc2c(Nc3ccc(Cl)c(Cl)c3)ncnc2cc1OCC1CN(C(=NC#N)N2CCN(C)CC2)CCO1 (stereo not given), COc1cc2c(Nc3ccc(Br)c(Cl)c3)ncnc2cc1O[C@H]1CO[C@@H]2[C@H]1OC[C@@H]2N1CCCCC1, CCCCc1ccc(C(=O)N2CCOC(COc3cc4ncnc(Nc5ccc(Cl)c(Cl)c5)c4cc3OC)C2)cc1 (stereo not given), COc1cc2c(Nc3ccc(Br)c(Cl)c3)ncnc2cc1O[C@H]1CO[C@H]2[C@@H]1OC[C@@H]2OC(F)F, COc1cc2c(Nc3cc(F)c(Br)c(Cl)c3)ncnc2cc1O[C@@H]1CO[C@@H]2[C@H]1OC[C@H]2F, COc1cc2c(Nc3ccc(Br)c(Cl)c3)ncnc2cc1O[C@@H]1CO[C@@H]2[C@H]1OC[C@H]2NS(C)(=O)=O, COc1cc2c(Nc3ccc(Cl)c(Cl)c3)ncnc2cc1OCc1csc(N2CCNCC2)n1, COc1cc2c(Nc3ccc(Cl)c(Cl)c3)ncnc2cc1OCC1CN(CCCOC2CCCCO2)CCCO1 (stereo not given), CCC(CC)CN1CCCOC(COc2cc3ncnc(Nc4ccc(Cl)c(Cl)c4)c3cc2OC)C1 (stereo not given), COc1cc2c(Nc3ccc(Br)c(Cl)c3Cl)ncnc2cc1OCC1CN(C)CCO1 (stereo not given), COc1cc2c(Nc3c(F)cccc3F)ncnc2cc1O[C@@H]1CO[C@@H]2[C@H]1OC[C@H]2F, COc1cc2c(Nc3ccc(Cl)c(Cl)c3)ncnc2cc1OCC1CN(CC2CCCCC2)CCO1 (stereo not given), COc1cc2c(Nc3cc(C)cc(C)c3)ncnc2cc1O[C@@H]1CO[C@@H]2[C@H]1OC[C@H]2F, COc1cc2c(Nc3ccc(Br)c(Cl)c3F)ncnc2cc1OCC1CN(C)C(C)(C)CO1 (stereo not given), COc1cc2c(Nc3ccc(Cl)c(Cl)c3)ncnc2cc1OCc1csc(C2CCCN(C)C2)n1 (stereo not given), CCOC(=O)C(C)N1CCOC(COc2cc3ncnc(Nc4ccc(Cl)c(Cl)c4)c3cc2OC)C1 (stereo not given), COc1cc2c(Nc3ccc(Br)c(Cl)c3C)ncnc2cc1OCC1CN(C)CCO1 (stereo not given), COc1cc2c(Nc3ccc(F)c(C(F)(F)F)c3)ncnc2cc1O[C@@H]1CO[C@@H]2[C@H]1OC[C@H]2F, COc1cc2c(Nc3ccc(N4CCN(C)CC4)cc3)ncnc2cc1O[C@H]1CO[C@@H]2[C@H]1OC[C@@H]2F, COc1cc2c(Nc3ccc(Br)c(Cl)c3F)ncnc2cc1OC[C@@H]1CN2CCC[C@H]2C(=O)N1, COc1cc2c(Nc3ccc(Cl)c(Cl)c3)ncnc2cc1OCC1CN(C(C)=O)CCCO1 (stereo not given), COc1cc2c(Nc3ccc(Br)c(Cl)c3)ncnc2cc1O[C@H]1CO[C@@H]2[C@H]1OC[C@@H]2N(C)C, COc1cc2c(Nc3ccc(Br)cc3C)ncnc2cc1OCC1CN(C)CCO1 (stereo not given), CCCCCC(=O)N1CCOC(COc2cc3ncnc(Nc4ccc(Cl)c(Cl)c4)c3cc2OC)C1 (stereo not given), COc1cc2c(Nc3ccc(F)c(Cl)c3F)ncnc2cc1OC[C@@H]1CN2CCC[C@H]2CO1, C=CCCCCCCN1CCOC(COc2cc3ncnc(Nc4ccc(Cl)c(Cl)c4)c3cc2OC)C1 (stereo not given), CCN(CC)[C@H]1CO[C@@H]2[C@H]1OC[C@@H]2Oc1cc2ncnc(Nc3ccc(Br)c(Cl)c3)c2cc1OC, COc1cc2c(Nc3ccc(Cl)c(Cl)c3)ncnc2cc1OCC1CN(CC2CCCCO2)CCO1 (stereo not given), COc1cc2c(Nc3ccc(N4CCN(C)CC4)c(Cl)c3Cl)ncnc2cc1O[C@H]1CO[C@@H]2[C@H]1OC[C@@H]2F, CCN1CCCC(c2nc(COc3cc4ncnc(Nc5ccc(Cl)c(Cl)c5)c4cc3OC)no2)C1 (stereo not given), COc1cc2c(Nc3ccc(Cl)c(Cl)c3)ncnc2cc1OCC1CN(CCc2ccccc2)CCO1 (stereo not given), COc1cc2c(Nc3ccc(Cl)c(Cl)c3)ncnc2cc1OCC1CN(CCC2OCCO2)CCO1 (stereo not given), COc1cc2c(Nc3cc(F)c(Br)cc3F)ncnc2cc1OCC1CN(C)CCO1 (stereo not given), C=CCN1CCOC(COc2cc3ncnc(Nc4ccc(Cl)c(Cl)c4)c3cc2OC)C1 (stereo not given), COc1cc2c(Nc3ccc(Cl)c(Cl)c3)ncnc2cc1OCC1CN(C(C)=O)CCO1 (stereo not given), COc1cc2c(Nc3ccc(Br)c(Cl)c3)ncnc2cc1OC1CCN(C)C1 (stereo not given), COc1cc2c(Nc3ccc(Cl)c(Cl)c3)ncnc2cc1OCC1CN(C(N)=NC#N)CCCO1 (stereo not given), COc1cc2c(Nc3ccc(Br)cc3Cl)ncnc2cc1OCC1CN(C)CCO1 (stereo not given), COc1cc2c(Nc3cc(Cl)c(Cl)cc3F)ncnc2cc1OC[C@@H]1CN2CCC[C@H]2CO1, COc1cc2c(Nc3cc(F)c(Oc4ccc(Cl)cc4)c(F)c3)ncnc2cc1O[C@@H]1CO[C@@H]2[C@H]1OC[C@H]2F
